According to ChEMBL document CHEMBL1201862, “PubChem BioAssay data set” (2004):
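Briefly, cells in 96-well plates were exposed to five compound concentrations for 48 h, and endpoints were estimated by linear interpolation. GI50 is the concentration that inhibits growth by half.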 Calls of active or inactive are those of the source. No stated cut-off is given here; in the data, active = GI50 up to about 1.1 µM and inactive = higher.

Assays:
Test in all cases: growth of human tumour cells (NCI), 48 h
CCRF-CEM = system: CCRF-CEM
COLO 205 = system: COLO 205
EKVX = system: EKVX
HCT-15 = system: HCT-15
K562 = system: K562
KM-20L2 = system: KM-20L2
LOX IMVI = system: LOX IMVI
M14 = system: M14
MOLT-4 = system: MOLT-4
Malme-3M = system: Malme-3M
NCI-H23 = system: NCI-H23
OVCAR-3 = system: OVCAR-3
OVCAR-4 = system: OVCAR-4
OVCAR-8 = system: OVCAR-8
SK-MEL-28 = system: SK-MEL-28
SK-MEL-2 = system: SK-MEL-2
SNB-75 = system: SNB-75
SR = system: SR
NCI/ADR-RES = system: NCI/ADR-RES

`N#[N+][c-]1c(-c2ccccc2)n[nH]c1=O` was tested, and the GI50 (CCRF-CEM) was > 100 µM (inactive), the GI50 (COLO 205) was > 100 µM (inactive) and the GI50 (EKVX) was > 100 µM (inactive). For the same compound, the GI50 (HCT-15) was greater than 100 µM, the GI50 (K562) was 97.9 µM (inactive) and the GI50 (KM-20L2) was > 100 µM (inactive). For the same compound, the GI50 (LOX IMVI) was > 100 µM (inactive), the GI50 (M14) was > 100 µM (inactive) and the GI50 (MOLT-4) was > 100 µM (inactive). For the same compound, the GI50 (Malme-3M) was > 100 µM (inactive), the GI50 (NCI-H23) was > 100 µM (inactive) and the GI50 (OVCAR-3) was > 100 µM (inactive). The GI50 (OVCAR-4) was > 100 µM (inactive), the GI50 (OVCAR-8) was > 100 µM (inactive) and the GI50 (SK-MEL-28) was > 100 µM (inactive). For the same compound, the GI50 (SK-MEL-2) was > 100 µM (inactive), the GI50 (SNB-75) was > 100 µM (inactive) and the GI50 (SR) was > 100 µM (inactive).

In the case of `CCOC(=O)c1csc(CCCCCCc2nc(C(=O)OCC)cs2)n1`, the GI50 (CCRF-CEM) is reported as > 42.3 µM (inactive), the GI50 (COLO 205) is reported as > 52.6 µM (inactive) and the GI50 (EKVX) is reported as > 86.7 µM (inactive). For the same compound, the GI50 (HCT-15) was greater than 60.5 µM, the GI50 (K562) was > 40.1 µM (inactive) and the GI50 (KM-20L2) was > 100 µM (inactive). For the same compound, the GI50 (LOX IMVI) was 32.4 µM (inactive), the GI50 (M14) was > 100 µM (inactive) and the GI50 (MOLT-4) was > 75 µM (inactive). The GI50 (Malme-3M) was > 74.5 µM (inactive), the GI50 (NCI-H23) was 43.2 µM (inactive) and the GI50 (OVCAR-3) was 99.5 µM (inactive). The GI50 (OVCAR-4) was > 100 µM (inactive), the GI50 (OVCAR-8) was 31.8 µM (inactive) and the GI50 (SK-MEL-28) was > 38.3 µM (inactive). The GI50 (SK-MEL-2) was 97.5 µM (inactive), the GI50 (SNB-75) was 21.1 µM (inactive) and the GI50 (SR) was > 100 µM (inactive).

For `CN(C)CC1CC/C(=C\c2ccc(Cl)cc2)C1=O` (stereo not given), the GI50 (CCRF-CEM) was 0.611 µM (active), the GI50 (COLO 205) was 4.19 µM (inactive) and the GI50 (EKVX) was 12.7 µM (inactive). The GI50 (HCT-15) was 3.18 µM, the GI50 (K562) was 0.908 µM (active) and the GI50 (KM-20L2) was 12.1 µM (inactive). The GI50 (LOX IMVI) was 2.4 µM (inactive), the GI50 (M14) was 10.1 µM (inactive) and the GI50 (MOLT-4) was 0.561 µM (active). The GI50 (Malme-3M) was 7.11 µM (inactive), the GI50 (NCI-H23) was 8.13 µM (inactive) and the GI50 (NCI/ADR-RES) was 3.24 µM (inactive). For the same compound, the GI50 (OVCAR-3) was 7.35 µM (inactive), the GI50 (OVCAR-4) was 15.1 µM (inactive) and the GI50 (OVCAR-8) was 3.58 µM (inactive). For the same compound, the GI50 (SK-MEL-28) was 3.3 µM (inactive), the GI50 (SK-MEL-2) was 12 µM (inactive) and the GI50 (SNB-75) was 14.8 µM (inactive).

For `C1CN(P2(N3CC3)=NP(N3CC3)(N3CC3)=NP(N3CC3)(N3CC3)=N2)CCO1` (stereo not given) [FOTRETAMINE], the GI50 (CCRF-CEM) was 23 µM (inactive), the GI50 (COLO 205) was > 100 µM (inactive) and the GI50 (EKVX) was > 100 µM (inactive). For the same compound, the GI50 (HCT-15) was greater than 100 µM, the GI50 (K562) was > 77.8 µM (inactive) and the GI50 (KM-20L2) was > 100 µM (inactive). The GI50 (LOX IMVI) was 72.4 µM (inactive), the GI50 (M14) was > 100 µM (inactive) and the GI50 (MOLT-4) was 8.2 µM (inactive). The GI50 (Malme-3M) was > 100 µM (inactive), the GI50 (NCI-H23) was 27.4 µM (inactive) and the GI50 (OVCAR-3) was > 100 µM (inactive). The GI50 (OVCAR-4) was > 100 µM (inactive), the GI50 (OVCAR-8) was > 100 µM (inactive) and the GI50 (SK-MEL-28) was > 100 µM (inactive). For the same compound, the GI50 (SK-MEL-2) was > 100 µM (inactive), the GI50 (SNB-75) was 55.7 µM (inactive) and the GI50 (SR) was 2.47 µM (inactive).

In the case of `CSc1sc(=S)sc1C(=O)N(C)c1ccccc1`, the GI50 (CCRF-CEM) is reported as 56 µM (inactive), the GI50 (COLO 205) is reported as > 100 µM (inactive) and the GI50 (EKVX) is reported as > 100 µM (inactive). The GI50 (HCT-15) was greater than 100 µM, the GI50 (K562) was > 100 µM (inactive) and the GI50 (KM-20L2) was > 100 µM (inactive). The GI50 (LOX IMVI) was > 100 µM (inactive), the GI50 (M14) was > 100 µM (inactive) and the GI50 (MOLT-4) was 84.5 µM (inactive). The GI50 (Malme-3M) was > 100 µM (inactive), the GI50 (NCI-H23) was > 100 µM (inactive) and the GI50 (OVCAR-3) was 91.8 µM (inactive). The GI50 (OVCAR-4) was > 100 µM (inactive), the GI50 (OVCAR-8) was > 100 µM (inactive) and the GI50 (SK-MEL-28) was > 100 µM (inactive). The GI50 (SK-MEL-2) was > 100 µM (inactive), the GI50 (SNB-75) was 22.6 µM (inactive) and the GI50 (SR) was 83 µM (inactive).

With `O=c1[nH]c(S)nc2c1sc(=S)n2-c1ccccc1` the GI50 (CCRF-CEM) was > 100 µM (inactive), the GI50 (COLO 205) was > 100 µM (inactive) and the GI50 (EKVX) was > 100 µM (inactive). The GI50 (HCT-15) was greater than 100 µM, the GI50 (K562) was > 100 µM (inactive) and the GI50 (KM-20L2) was > 100 µM (inactive). The GI50 (LOX IMVI) was > 100 µM (inactive), the GI50 (M14) was > 100 µM (inactive) and the GI50 (MOLT-4) was > 100 µM (inactive). For the same compound, the GI50 (Malme-3M) was > 100 µM (inactive), the GI50 (NCI-H23) was > 100 µM (inactive) and the GI50 (OVCAR-3) was > 100 µM (inactive). The GI50 (OVCAR-4) was > 100 µM (inactive), the GI50 (OVCAR-8) was > 100 µM (inactive) and the GI50 (SK-MEL-28) was > 100 µM (inactive). The GI50 (SK-MEL-2) was > 100 µM (inactive), the GI50 (SNB-75) was 55.1 µM (inactive) and the GI50 (SR) was > 100 µM (inactive).

For `CC(/C=C/NNC1=NN=C(c2ccccc2)C(c2ccccc2)N1)Sc1ccccc1N` (stereo not given), the GI50 (CCRF-CEM) was 2.46 µM (inactive), the GI50 (COLO 205) was 15.3 µM (inactive) and the GI50 (EKVX) was 18.5 µM (inactive). The GI50 (HCT-15) was 4.89 µM, the GI50 (K562) was 6.24 µM (inactive) and the GI50 (KM-20L2) was 10.6 µM (inactive). For the same compound, the GI50 (LOX IMVI) was 3.18 µM (inactive), the GI50 (M14) was 3.41 µM (inactive) and the GI50 (MOLT-4) was 3.43 µM (inactive). The GI50 (Malme-3M) was 7.05 µM (inactive), the GI50 (NCI-H23) was 12.9 µM (inactive) and the GI50 (OVCAR-3) was 10.3 µM (inactive). For the same compound, the GI50 (OVCAR-4) was 6.21 µM (inactive), the GI50 (OVCAR-8) was 4.36 µM (inactive) and the GI50 (SK-MEL-28) was 8.93 µM (inactive). The GI50 (SK-MEL-2) was 7.29 µM (inactive), the GI50 (SNB-75) was 3.3 µM (inactive) and the GI50 (SR) was 2.99 µM (inactive).

With `Cc1cc2nc(O)c(CCC(=O)O)nc2cc1C` the GI50 (CCRF-CEM) was > 100 µM (inactive), the GI50 (COLO 205) was 70.6 µM (inactive) and the GI50 (EKVX) was > 100 µM (inactive). For the same compound, the GI50 (HCT-15) was greater than 100 µM, the GI50 (K562) was > 100 µM (inactive) and the GI50 (KM-20L2) was > 100 µM (inactive). The GI50 (LOX IMVI) was > 100 µM (inactive), the GI50 (M14) was > 100 µM (inactive) and the GI50 (MOLT-4) was > 100 µM (inactive). The GI50 (Malme-3M) was > 100 µM (inactive), the GI50 (NCI-H23) was > 100 µM (inactive) and the GI50 (OVCAR-3) was > 100 µM (inactive). The GI50 (OVCAR-4) was > 100 µM (inactive), the GI50 (OVCAR-8) was > 100 µM (inactive) and the GI50 (SK-MEL-28) was > 100 µM (inactive). The GI50 (SK-MEL-2) was > 100 µM (inactive), the GI50 (SNB-75) was > 100 µM (inactive) and the GI50 (SR) was 43.4 µM (inactive).

In the case of `Cc1ccccc1/C=C/c1csnn1`, the GI50 (CCRF-CEM) is reported as 60.3 µM (inactive), the GI50 (COLO 205) is reported as > 100 µM (inactive) and the GI50 (EKVX) is reported as > 100 µM (inactive). The GI50 (HCT-15) was greater than 42.2 µM, the GI50 (K562) was > 100 µM (inactive) and the GI50 (KM-20L2) was > 100 µM (inactive). For the same compound, the GI50 (LOX IMVI) was > 58.7 µM (inactive), the GI50 (M14) was > 100 µM (inactive) and the GI50 (MOLT-4) was > 100 µM (inactive). For the same compound, the GI50 (Malme-3M) was > 100 µM (inactive), the GI50 (NCI-H23) was > 100 µM (inactive) and the GI50 (OVCAR-3) was > 100 µM (inactive). The GI50 (OVCAR-4) was > 100 µM (inactive), the GI50 (OVCAR-8) was > 100 µM (inactive) and the GI50 (SK-MEL-28) was > 100 µM (inactive). The GI50 (SK-MEL-2) was > 100 µM (inactive), the GI50 (SNB-75) was > 100 µM (inactive) and the GI50 (SR) was > 100 µM (inactive).

In the case of `CCSc1nnc(-c2ccccc2)nc1Cc1ccc(OC)cc1`, the GI50 (CCRF-CEM) is reported as 69 µM (inactive), the GI50 (COLO 205) is reported as 86.9 µM (inactive) and the GI50 (EKVX) is reported as > 100 µM (inactive). For the same compound, the GI50 (HCT-15) was 82 µM, the GI50 (K562) was 71.3 µM (inactive) and the GI50 (KM-20L2) was > 100 µM (inactive). For the same compound, the GI50 (LOX IMVI) was 47.9 µM (inactive), the GI50 (M14) was > 100 µM (inactive) and the GI50 (MOLT-4) was 49.2 µM (inactive). The GI50 (Malme-3M) was > 100 µM (inactive), the GI50 (NCI-H23) was 63.4 µM (inactive) and the GI50 (OVCAR-3) was 88.9 µM (inactive). For the same compound, the GI50 (OVCAR-4) was > 100 µM (inactive), the GI50 (OVCAR-8) was > 100 µM (inactive) and the GI50 (SK-MEL-28) was > 100 µM (inactive). For the same compound, the GI50 (SK-MEL-2) was 87.1 µM (inactive), the GI50 (SNB-75) was 65.8 µM (inactive) and the GI50 (SR) was 42.8 µM (inactive).
